Laboratory results: patent US10426772B2, “Use of ergot alkaloids as an anthelmintic agent” (priority 2016, dated 2019)

How the values were obtained:
Sm.5HTR [1] = target: T1, Sm.5HTR (Schistosoma mansoni, UniProt G4V5G4); format: cell-based; conditions: 10 μM for 30 minutes, washout, 5-HT response 1 hour later (FIGS. 11B-D)
Method: Colors correspond to drug identity in C&D. Data represent mean±s.e.m., n=3 (C-E).
To test putative irreversible antagonists, assays on suspension cells were performed one day post transfection. Cells in a T-75 flask were trypsinized (0.25% w/v) and transferred to a 14 mL tube, centrifuged at 300 RCF, and resuspended in HBSS supplemented with 0.1% BSA, 20 mM HEPES. Compounds were added at 10 μM, and after 30 minutes incubation at room temperature cells were centrifuged (300 RCF, 5 minutes) and resuspended in fresh media. This wash step was repeated, and cells were resuspended in HBSS supplemented with 0.1% BSA, 20 mM HEPES and GloSensor reagent. […]

S. mansoni = assay: Hepatic shift assay in infected mice; format: in vivo, Schistosoma mansoni; conditions: intraperitoneal, ergotamine 95, praziquantel 100, methylergometrine 50, lisuride 10, dihydroergotoxine 60 mg/kg, euthanized three hours later
Method: Female Swiss Webster mice were exposed to 200 S. mansoni cerceria (NMRI strain) at between 4-6 weeks old. For hepatic shift assays, infections were allowed to mature to 7 weeks, at which point mice were given test compounds by intraperitoneal injection and euthanized […]. Compounds were solubilized in 50 μL DMSO, and diluted in 200 μL 5% w/v trappsol (Cyclodextrin Technologies Development, THPB-p-31 g)+saline (NaCl 0.9%) solution. Immediately after being euthanized, mice were dissected to remove the liver from the portal vein, and the number of worms recovered from the portal vein, mesenteries and liver was recorded for each mouse.
Several experiments using a murine model of schistosomiasis were carried out in order to test the anthelmintic efficacy of Sm.5HTR ligands in vivo. First, the acute effect of drugs were assessed using a “heptic-shift” assay; mature parasites normally reside within the mesenteric vasculature, and upon exposure to anthelmintics they dislodge and are swept to the liver^12,13 where they may be cleared from the host^14 (FIG. 20B-F).
Given that the current anthelmintic therapy, praziquantel, disrupts worms and results in a rapid shift from the mesenteric vasculature to the liver (Melhorn et al., 1981) (FIG. 20B-F), it was hypothesized that Sm.5HTR ligands that disrupt parasite movement would cause a similar hepatic shift. Compounds were delivered by intraperitoneal injection and mice were euthanized three hours later in order to quantify the number of worms found in the mesentaries, portal vein or liver.

Sm.5HTR [2] = target: Sm.5HTR (Schistosoma mansoni, UniProt A0A173FEI8); assay: cell-based
Method: HEK293 cells (ATCC CRL-1573.3) were cultured in growth media consisting of DMEM supplemented with GlutaMAX (Gibco cat #10566016)+10% heat inactivated fetal bovine serum and penicillin-streptomycin (100 units/mL, ThermoFisher). Stable cell lines for the pGloSensor-22F cAMP Plasmid (Promega) and schistosome 5HTRs in pcDNA3.1(−) were selected with hygromycin (200 μg/mL) and G418 (400 μg/mL). The correct identity of each stably expressed sequence was verified by isolating total RNA from each stable line (TRIzol Reagent, Ambion) and amplifying the sequence of interest with gene specific primers flanking the 5′ and 3′ regions of the cds (SuperScript® III One-Step RT-PCR System, Invitrogen). PCR products were ligated into a TA cloning vector (pGEM-T Easy, Promega) and sequenced.
HEK293 lines stably expressing both the 22F cAMP sensor and Sm.5HTR were cultured in growth media supplemented with 10% dialyzed FRS. For cAMP assays in 96 well format, cells cultured in T-75 flasks were trypsinized (TrypLE Express, Gibco) and plated in solid white 96 well plates (Costar cat #3917) the day prior to assay at a density of 2.5×10^4 cells/well. The following day media was removed and replaced with assay buffer consisting of HBSS buffered with HEPES (20 mM, pH 7.4)+BSA (0.1% w/v) and D-luciferin sodium salt (1 mg/mL, Gold Biotechnology). Plates were equilibrated at room temperature for 1 hour, at which point 3-Isobutyl-1-methylxanthine (IBMX 200 μM, Sigma Aldrich) was added. Plates were equilibrated a further 30 minutes prior to test compound addition. […] Readings performed in 384 well format were modified so that cells were assayed in suspension. Cells were grown to 70% confluence in T-75 flasks, trypsinized and pelleted (300 RCF×5 minutes). Media was removed and cells were resuspended in 25 mL assay buffer supplemented with IBMX (200 μM). A 96 channel semi-automated pipet (Eppendorf epMotion 96) delivered 55 μL of cell suspension per well (5000 cells/well) into solid white 384 plates (Corning 3574).

adult schistosomes = assay: Egg laying assay, adult schistosome pairs in vitro; format: cell-based, Schistosoma mansoni; conditions: serotonin 100 μM, forskolin 100 μM, LSD 10 μM, nuciferine 10 μM, ergotamine 5 μM (FIG. 19F); eggs per worm pair/day over five days
Text: (§1) Female Swiss Webster mice infected with S. mansoni cerceria (NMRI strain) were sacrificed 49 days post infection by CO2 euthanasia. Adult schistosomes were recovered by perfusion with a solution of 0.85% sodium chloride+0.75% sodium citrate and dissection of the mesenteric vasculature. Harvested schistosomes were washed in RPMI 1640 Medium with GlutaMAX+5% heat inactivated FBS (Gibco) and Penicillin-Streptomycin (final concentration 100 units/mL, ThermoFisher cat #15140122).
For egg laying assays, adult schistosomes were transferred to 24 well plates the day after harvesting from mice (5 worm pairs in 2 mL media per well). Eggs were counted under a stereomicroscope daily, after which worms were transferred to a new well with fresh drug containing media. Egg counts were recorded for five days, and data processed as the mean number of eggs laid per worm pair/day. Measurements of egg dimensions were quantified using the “analyze>measure” function in ImageJ to record the length and width of individual eggs.

adult S. mansoni = assay: Movement assay of cultured adult S. mansoni (Example 2); format: cell-based; conditions: Schistosoma mansoni; for IC50: read-out: IC50, inhibition of serotonin evoked schistosome movement
Text: as §1
For movement assays, worms were cultured 37° C./5% CO2 in vented 100×25 mm petri dishes (ThermoFisher cat #4031) containing 50 mL of media and used between 1-3 days after harvesting. Prior to assessing worm movement, individuals were transferred to a six well dish (4-5 individuals per well) containing 3 mL drug solution in RPMI 1640 supplemented with HEPES (25 mM) and MS (5%). Videos were recorded using a Zeiss Discovery v20 stereomicroscope and a QiCAM 12-bit cooled color CCD camera controlled by metamorph imaging software (version 7.8.1.0). 1 minute recordings were acquired at 4 frames per second, saved as a .TIFF stack, and movement was analyzed using ImageJ software as described in (PMID: 27187180, PMID: 27397763).

Sm.5HTR [3] = target: T1, Sm.5HTR; format: cell-based
Method: (§2) HEK293 cells (ATCC CRL-1573.3) were cultured in DMEM supplemented with 10% fetal bovine serum (FBS), penicillin (100 units/mL), streptomycin (100 μg/mL), and L-glutamine (290 μg/mL). Cells were transiently transfected (ViaFect, Promega) as per the manufacturer's protocol at a density of 2×10^6 cells per T-25 cell-culture flask. Cells were transfected with plasmids encoding GloSensor (Promega) and either Sm.5HTR, (Smp_126730, GenBank accession number KF444051.1) or Sm.5HTRL (KX150867), both GPCRs being codon optimized for mammalian expression, or Hs.5HT7a (GenBank accession number NM_000872.4, R&D Systems) subcloned into pCS2(−). Cell culture reagents were from Invitrogen. Epitope tagged constructs were used to verify expression, and untagged constructs used for all luminescence assays.
(§3) For assays performed on adherent cells, HEK-293 cells were transferred one day post transfection to 96 well, solid white plates (Corning, cat #3917) coated with 0.01% poly-L-lysine (Sigma Aldrich) at a density of 5×10^4 cells/well in DMEM supplemented with 1% dialyzed FBS (Gibco). After overnight culture (37° C./5% CO2), media was decanted and replaced with 100 μL/well HBSS supplemented with 0.1% BSA, 20 mM HEPES (pH 7.4) and GloSensor™ reagent. Plates were allowed to equilibrate at room temperature for two hours prior to performing luminescence assays (GloMax-Multi Detection System plate reader, Promega). Conditions for individual assays were described as per figure legends. The standard assay to detect changes in cAMP utilized the F22 sensor in media supplemented with IBMX (200 μM). Ligands were added at a concentration of 20× per well for experiments (i.e., 5 μl of drug solution added to 100 μL of cells). […] For the resazurin reduction assay for cellular viability, cells were incubated with resazurin (final concentration, 10 μM) and tested ligands with fluorescence measurements (560 nm excitation/590 nm emission) made at 1.5 hours intervals.
(§4) The protocol for screening is shown schematically in FIG. 5A. HEK293 cells transiently transfected with either the human 5HT7 receptor (Hs.5HT7R) or the schistosome receptor (Sm.5HTR) were exposed to test ligands in a 96-well plate format. […] Luminescence was then read at a fixed time point (t=60 minutes, FIG. 5A). Hits were assigned as compounds that evoked a ≥50% decrease in luminescence output at the fixed time sampling point (FIG. 5B).

Sm.5HTRL = Sm.5HTRL (Schistosoma mansoni, UniProt A0A173FEI8); assay: GloSensor cAMP assay, HEK293 cells transiently transfected with Sm.5HTRL; format: cell-based
Method: as §2, §3

Hs.5HT7R = target: T2, Hs.5HT7R (Homo sapiens, UniProt P34969); assay: GloSensor cAMP assay, HEK293 cells transiently transfected with Hs.5HT7R; format: cell-based; conditions: inhibition of cAMP generation
T2 construct: host or cells: HEK293 (ATCC CRL-1573.3), transient, pCS2(−), co-transfected with GloSensor
Method: as §2, §3, §4

[4] = test system: S. mansoni schistosomules; assay: Schistosomule contractility assay; format: cell-based; conditions: Schistosoma mansoni, read-out: IC50, inhibition of 5-HT evoked contractions
Method: FIGS. 14A-14F. […] Effects of selected ligands on schistosomules. […] A contractile cycle is defined when a deviation of ≥20% of the average body length (dashed lines) occurs.
Biomphalaria glabrata (M-line) snails exposed to Schistosoma mansoni miracidia (Strain PR-1) were obtained from BEI Resources (Cat. number NR-21961) and cercaria were shed following exposure to light (1.5 hours). Cercaria were manually transformed into schistosomula by vortexing (3×45 seconds, each separated by 3 minutes on ice) and tails were removed by gradient centrifugation (24 mL Percoll, 4 mL 10×EMEM, 1.5 ml penicillin-streptomycin, 1 mL of 1M HEPES in 0.85% NaCl, 9.5 ml distilled water) at 500 g/15 minutes at 4° C. Supernatant containing tails was discarded, and schistosomules were resuspended in Basch media and incubated (37° C., 5% CO2) overnight before conducting mobility assays. For contractility experiments, somules were incubated in 5-HT free Basch media to resolve a basal contractility rate. […] Schistosomules were incubated in 24 well plates (about 200 schistosomules/0.5 mL media per well) for 30 minutes (37° C./5% CO2) prior to acquiring videos of schistosome movement (1 minute recordings/well) using a Nikon Coolpix 5700 camera affixed to a Nikon Eclipse TS100 microscope (10× objective). The WrmTrck plugin for ImageJ was used to quantify worm mobility (El-Shehabi et al., 2012). Briefly, the major axis of each schistosomule body length was extracted from the raw output of WrmTrck and an average length was determined for the duration of the recording. Contractions were quantified by determining the number of episodes during which the worm body length deviated from the average by over 20%. S. mansoni protocols were approved by the Iowa State University Institutional Biosafety Committee.

Sequence of Sm.5HTR (Schistosoma mansoni, UniProt A0A173FEI8) (A0A173FEI8 entry or part of it): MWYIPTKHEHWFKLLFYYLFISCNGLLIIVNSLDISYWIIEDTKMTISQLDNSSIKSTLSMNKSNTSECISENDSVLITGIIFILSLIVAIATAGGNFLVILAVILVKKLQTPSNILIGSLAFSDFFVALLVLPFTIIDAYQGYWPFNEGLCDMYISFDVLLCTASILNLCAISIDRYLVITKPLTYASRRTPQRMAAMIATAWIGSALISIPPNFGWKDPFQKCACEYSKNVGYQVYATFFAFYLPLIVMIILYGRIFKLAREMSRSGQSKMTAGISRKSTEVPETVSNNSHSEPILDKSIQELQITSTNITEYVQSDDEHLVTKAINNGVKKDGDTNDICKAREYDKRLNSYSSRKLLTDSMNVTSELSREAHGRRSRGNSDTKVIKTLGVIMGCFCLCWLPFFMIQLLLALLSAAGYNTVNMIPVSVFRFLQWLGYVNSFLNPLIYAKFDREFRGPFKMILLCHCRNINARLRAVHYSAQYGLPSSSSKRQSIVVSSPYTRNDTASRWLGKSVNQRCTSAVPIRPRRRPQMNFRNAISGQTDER
T1 sequence (G4V5G4 entry or part of it): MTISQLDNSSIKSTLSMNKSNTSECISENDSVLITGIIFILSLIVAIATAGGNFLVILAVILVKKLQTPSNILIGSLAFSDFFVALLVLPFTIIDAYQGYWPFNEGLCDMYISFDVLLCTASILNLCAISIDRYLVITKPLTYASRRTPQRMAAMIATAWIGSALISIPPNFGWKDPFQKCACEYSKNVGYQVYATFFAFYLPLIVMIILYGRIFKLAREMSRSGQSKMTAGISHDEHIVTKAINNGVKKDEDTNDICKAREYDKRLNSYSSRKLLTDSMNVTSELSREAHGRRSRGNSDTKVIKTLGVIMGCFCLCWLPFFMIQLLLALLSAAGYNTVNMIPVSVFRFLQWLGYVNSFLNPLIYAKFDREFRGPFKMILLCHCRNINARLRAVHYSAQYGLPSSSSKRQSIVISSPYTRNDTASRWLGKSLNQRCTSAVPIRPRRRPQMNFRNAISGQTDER
Sequence of Sm.5HTRL (A0A173FEI8 entry or part of it): as the sequence (A0A173FEI8 entry or part of it) above
T2 sequence (P34969 1-445 isoform P34969-2): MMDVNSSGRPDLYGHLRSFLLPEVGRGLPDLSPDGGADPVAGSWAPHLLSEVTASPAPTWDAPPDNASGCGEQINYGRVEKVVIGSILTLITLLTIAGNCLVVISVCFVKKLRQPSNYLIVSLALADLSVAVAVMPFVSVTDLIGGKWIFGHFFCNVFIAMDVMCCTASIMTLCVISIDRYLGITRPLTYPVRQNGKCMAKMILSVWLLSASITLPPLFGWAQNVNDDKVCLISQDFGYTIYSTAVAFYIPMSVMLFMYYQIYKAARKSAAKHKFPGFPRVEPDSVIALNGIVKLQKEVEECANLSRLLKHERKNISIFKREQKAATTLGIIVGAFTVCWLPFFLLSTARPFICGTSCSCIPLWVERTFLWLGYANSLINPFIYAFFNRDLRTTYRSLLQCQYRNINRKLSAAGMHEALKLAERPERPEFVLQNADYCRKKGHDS

In the case of `Cc1nc2n(c(=O)c1CCN1CCC(c3noc4cc(F)ccc34)CC1)CCCC2` [risperidone], the “persistence of Sm.5HTR inhibition after antagonist wash-out” value (from here on “persistence of Sm.5HTR inhibition”) (Sm.5HTR [1]) is reported as “long-lasting inhibition”.
For `CC[C@@H](CO)NC(=O)[C@@H]1C=C2c3cccc4[nH]cc(c34)C[C@H]2N(C)C1` [methylergometrine], the “% of worm burden found in the liver” value (S. mansoni) was 50.6±28.5% and the Emax (Sm.5HTR [2]; HEK293, agonist read, 45 minutes, read-out: Sm.5HTR Emax) was 50 ± 17%.
In the case of `CCN(CC)C(=O)[C@@H]1C=C2c3cccc4[nH]c(Br)c(c34)C[C@H]2N(C)C1` [BOL-148, 2-bromo-lysergic acid diethylamide], the “decrease of egg laying” value (adult schistosomes) is reported as “no effect”, the IC50 (adult S. mansoni) is reported as 29 ± 23 nM and the IC50 (Sm.5HTR [2]; 5-HT 500 nM, read-out: Sm.5HTR IC50 (antagonist)) is reported as 100 ± 20 nM. For the same molecule, the “agonist activity at Sm.5HTR, in words” value (Sm.5HTR [2]; FIG. 18C) was “Agonist activity is eliminated”.
`CCN(CC)C(=O)N[C@H]1C=C2c3cccc4[nH]cc(c34)C[C@H]2N(C)C1` [lisuride] was tested, and the “% of worm burden found in the liver” value (S. mansoni) was “no difference relative to control animals”.
For `CN1C[C@H](CNC(=O)OCc2ccccc2)C[C@@H]2c3cccc4c3c(cn4C)C[C@H]21` [metergoline], the “agonist efficacy at Sm.5HTR, in words” value (Sm.5HTR [3]; FIG. 10A) was “no efficacy”, the Kb (Sm.5HTR [3]; antagonism of 5-HT evoked cAMP accumulation, FIG. 10F, read-out: affinity constants (KB), Schild regression analysis) was 4530 nM and the “nature of antagonism: right-shift in the 5-HT dose-response relationship” value (Sm.5HTR [3]; increasing doses of ligand, FIGS. 10B-D) was “competitive antagonism”. For the same molecule, the “persistence of Sm.5HTR inhibition” value (Sm.5HTR [1]) was “long-lasting inhibition”.
With `NCCc1c[nH]c2ccc(O)cc12` [5-HT, Serotonin] the “decrease of egg laying” value (adult schistosomes) was 83%, the EC50 (adult S. mansoni; FIG. 19B, read-out: EC50, stimulation of adult schistosome movement) was 52000 ± 2000 nM and the EC50 (Sm.5HTRL; 5-HT dose response, FIG. 2H, read-out: EC50, activation of Sm.5HTRL) was 200 ± 30 nM. For the same molecule, the “greater sensitivity of Sm.5HTRL compared with Sm.5HTR” value (Sm.5HTRL; ratio of 5-HT EC50) was “about 10 fold”.
`CC(C)C[C@H]1C(=O)N2CCC[C@H]2[C@]2(O)O[C@](NC(=O)[C@@H]3C=C4c5cccc6[nH]c(Br)c(c56)C[C@H]4N(C)C3)(C(C)C)C(=O)N12` [bromocriptine] was tested, and the “higher selectivity for the parasitic 5-HT receptor” value (Sm.5HTR [3]; Sm.5HTR over Hs.5HT7R) was “about 10 fold”, the “potency (IC50) at Sm.5HTR, lower right quadrant of FIG. 13” value (Sm.5HTR [3]; inhibition of cAMP generation) was “sub-μM potency” and the “potency (IC50) at Hs.5HT7R, lower right quadrant of FIG. 13” value (Hs.5HT7R) was “supra-μM potency”. It also gave an IC50 (adult S. mansoni) of 251 ± 67 nM and an IC50 [4] of no more than 1000 nM.
With `CSc1ccc2c(c1)C(N1CCN(C)CC1)Cc1ccccc1S2` (centres unmarked) [methiothepin] the “antagonism of 5-HT stimulated cAMP generation” value (Sm.5HTR [3]; methiothepin 10 μM preincubation, 5-HT 10 μM, IBMX 200 μM (FIG. 2G)) was “antagonism of 5-HT stimulated cAMP generation” and the “persistence of Sm.5HTR inhibition” value (Sm.5HTR [1]) was “long-lasting inhibition”.
